The source of these data is patent US20020026053A1, “Novel 3-(substituted) -2- indolinones compounds and use thereof as inhibitors of protein kinase activity” (priority 1997, published 2002).

This experiment relates to FLK-1 receptor. Description: FLK-1 Assay (cellular/catalytic ELISA, VEGF-stimulated phosphotyrosine). In kind it is cell-based. The following applies: protocol P.110. Also on record: concentration or dose not given beside the values. In a few lines: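 NIH3T3 C7#3 cells engineered to express Flk-1 were serum-starved overnight (0.1% FBS), then exposed to compound for 2 h at 37 °C (final dilution 1:200, 0.5% DMSO) before VEGF stimulation. Lysates captured on anti-FLK-1 antiserum plates; phosphotyrosine detected by UB40 antibody/POD-ABTS ELISA versus untreated controls.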
A general note: ELISA stands for enzyme-linked immunosorbent assay.

In the case of `O=C1Nc2ccc(CCCl)cc2C1=Cc1ccccc1F` [10736/G08], the “Flk Kinase % Inhibition (P.110)” value is recorded as −0.1%.
Consider `CCc1ccc(C=C2C(=O)Nc3ccc(CCCl)cc32)cc1` [10736/G09], for which the “Flk Kinase % Inhibition (P.110)” value was −2.1%.
As to `COc1cccc(C=C2C(=O)Nc3ccc(CCCl)cc32)c1` [10736/G10], the “Flk Kinase % Inhibition (P.110)” value was 6.0%.
The figure for `O=C1Nc2ccc(CCCl)cc2C1=Cc1ccccc1Cl` [10736/G11] is 0.0%; for `Cc1c(Br)cc(Br)c2c1C(=Cc1ccc(Cl)cc1)C(=O)N2` [10736/H02] it is 6.1%.
As for `Cc1c(Br)cc(Br)c2c1C(=Cc1ccccc1C(F)(F)F)C(=O)N2` [10736/H03], the “Flk Kinase % Inhibition (P.110)” value is 15.1%.
To `Cc1cccc(C=C2C(=O)Nc3c(Br)cc(Br)c(C)c32)c1` [10736/H04] belongs 14.0%.
To `Cc1ccc(C=C2C(=O)Nc3c(Br)cc(Br)c(C)c32)cc1` [10736/H05] belongs 16.3%.
On to `Cc1c(Br)cc(Br)c2c1C(=Cc1cccc(Cl)c1)C(=O)N2` [10736/H06], for which the “Flk Kinase % Inhibition (P.110)” value was determined as 15.5%.
